Read-outs that look alike come from different tables or passages of the source.
Assays:
A2780 = test: Inhibition of cell growth, A2780 wild type ovarian carcinoma cell line
2780AD = test: Inhibition of cell growth, adriamycin (doxorubicin) resistant 2780AD cell line; format: cell-based, human; conditions: 2780AD adriamycin resistant, read-out: Inhibition of cell growth 2780AD nM (IC50)
A2780/cp70 = test: Inhibition of cell growth, cisplatin resistant A2780/cp70 cell line; format: cell-based, human; conditions: A2780/cp70 cisplatin resistant, read-out: Inhibition of cell growth A2780/cp70 nM (IC50)
[1] = read-out: Inhibition of cell growth (IC50, nM) A2780, A2780, Table 1
[2] = read-out: Growth Inhibition (IC50) A2780, A2780, Table 4

With `O=C1c2c(O)ccc(O)c2C(=O)c2c(NCCN3CCCC(CO)C3)ccc(NCCN3CCCC(CO)C3)c21` (centres unmarked) [HAQ70, 1,4-Bis-{[2-(3-hydroxymethylpiperidine-1-yl)ethyl]amino}-5,8-dihydroxyanthracene-9,10-dione] the melting point was 180 to 183 °C.
`CN(C)CCNc1ccc(NCCN2CCCC(O)C2)c2c1C(=O)c1c(O)ccc(O)c1C2=O` (centres unmarked) [HAQ73, 1-[(2-Dimethylamino)ethylamino]-4-[2-(3-hydroxypiperidon-1-yl)ethylamino]-5,8-dihydroxy-anthracene-9,10-dione] showed an IC50 (A2780; [1]) of 10.8 nM.
Work on `O=C1c2c(O)ccc(O)c2C(=O)c2c(NCCN3CCCCC3CO)ccc(NCCN3CCCCC3CO)c21` (centres unmarked) [HAQ105, 1,4-Bis-{[2-(2-hydroxymethylpiperidine-1-yl)ethyl]amino}-5,8-dihydroxy-anthracene-9,10-dione] yielded a melting point of 208 to 210 °C.
In the case of `CN(C)CCNc1ccc(NCCN2CCCC2CO)c2c1C(=O)c1c(O)ccc(O)c1C2=O` (centres unmarked) [HAQ110, 1-{[(2-Dimethylamino)ethyl]amino}-4-{[2-(2-hydroxymethylpyrrolidin-1-yl)ethyl]-amino}-5,8-dihydroxy-anthracene-9,10-dione], the IC50 (A2780; [2]) is reported as 69 nM.
In the case of `CN(C)CCNc1ccc(NCCN2CCC(O)CC2)c2c1C(=O)c1c(O)ccc(O)c1C2=O` [HAQ111, 1-{[(2-Dimethylamino)ethyl]amino}-4-{[2-(4-hydroxypiperidin-1-yl)ethyl]amino}-5,8-dihydroxy-anthracene-9,10-dione], the IC50 (A2780; [1]) is reported as 6.1 nM.
In the case of `O=C1c2c(O)ccc(O)c2C(=O)c2c(NCCN3CCC(O)C3)ccc(NCCN3CCC(O)C3)c21` (centres unmarked) [HAQ115, 1,4-Bis-{[2-(3-hydroxypyrrolidin-1-yl)ethyl]amino}-5,8-dihydroxy-anthracene-9,10-dione], the melting point is reported as 197 to 199 °C.
Work on `O=C1c2c(O)ccc(O)c2C(=O)c2c(NCCN3CCC(O)CC3)ccc(NCCN3CCC(O)CC3)c21` [HAQ116, 1,4-Bis-{[2-(4-hydroxypiperidin-1-yl)ethyl]amino}-5,8-dihydroxy-anthracene-9,10-dione] yielded a melting point of 241 to 244 °C.
`O=C1c2c(O)ccc(O)c2C(=O)c2c(NCCN3CCCC3CO)ccc(NCCN3CCCC3CO)c21` (centres unmarked) [HAQ125, 1,4-Bis-{[2-(2-hydroxymethylpyrrolidin-1-yl)ethyl]amino}-5,8-dihydroxy-anthracene-9,10-dione] gave a melting point of 202 to 204 °C.
In the case of `C[N+](C)([O-])CCNc1ccc(NCC[N+]2([O-])CCCC2CO)c2c1C(=O)c1c(O)ccc(O)c1C2=O` (centres unmarked) [HAQ132N, 1-{[2-(2-Hydroxymethylpyrrolidin-1-yl-N-oxide)ethyl]amino}-4-{[(2-dimethylamino-N-oxide)ethyl]amino}-5,8-dihydroxy-anthracene-9,10-dione], the IC50 (A2780; [2]) is reported as > 100000 nM, the IC50 (A2780; read-out: IC50 of di-N-oxides (order of cytotoxicity), text b286) is reported as > 100000 nM and the “cytotoxicity ratio (CR=IC50 of alkylaminoanthraquinone-di-N-oxide/IC50 alkylaminoanthraquinone)” value (A2780; text b286) is reported as 1,450.
`O=C1c2c(O)ccc(O)c2C(=O)c2c(NCCN3CCCCC3)ccc(NCCN3CCCCC3)c21` [HAQ145, 1,4-Bis-{[2-(piperidin-1-yl)ethyl]amino}-5,8-dihydroxy-anthracene-9,10-dione] gave a melting point of 219 to 221 °C.
With `CN(C)CCNc1ccc(NCCN2CCCCC2)c2c1C(=O)c1c(O)ccc(O)c1C2=O` [HAQ148, 1-{[(2-Dimethylamino)ethyl]amino}-4-{[2-(piperidin-1-yl)ethyl]amino}-5,8-dihydroxyanthracene-9,10-dione, reference compound] the IC50 (A2780; [1]) was > 1000 nM, the IC50 (A2780; read-out: Inhibition of cell growth A2780 nM (IC50), A2780 wild type, Table 2) was > 1000 nM and the IC50 (2780AD) was > 1000 nM. For the same compound, the IC50 (A2780/cp70) was > 1000 nM.
In the case of `O=C1c2ccccc2C(=O)c2c(NCCN3CCCC3CO)cccc21` (centres unmarked) [HAQ163, 1-{[2-(2-Hydroxymethylpyrrolidin-1-yl)ethyl]amino}-anthracene-9,10-dione], the IC50 (A2780; read-out: Inhibition of cell growth A2780 nM (IC50)) is reported as > 1000 nM, the IC50 (2780AD; Homo sapiens) is reported as > 1000 nM and the IC50 (A2780/cp70; Homo sapiens) is reported as > 1000 nM. The melting point was 113 to 115 °C.

Reference: patent US7557215B2, “Anthraquinone compounds as anti cancer compounds” (Somanta Limited, priority 2003, dated 2009)
